In US6174884A, “1,5-dihydro-pyrazolo[34-D]-pyrimidinone derivatives” (Bayer Aktiengesellschaft, priority 1997, dated 2001):

Legend:
PDE I = test: Phosphodiesterase inhibition in vitro, PDE I (Ca-calmodulin-stimulatable); assay type: biochemical, porcine aorta, porcine brain or, preferably, bovine aorta; conditions: Ca/calmodulin added, substrate 10^-6 mol/l
From the text: (§1) The c-GMP-stimulatable PDE II, the c-GMP-inhibitable PDE III and the cAMP-specific PDE IV were isolated either from porcine or bovine heart myocard. The Ca^2+ -calmodulin-stimulatable PDE I was isolated from porcine aorta, porcine brain or, preferably, bovine aorta. The c-GMP-specific PDE V was obtained from porcine small intestine, porcine aorta, human platelets and, preferably, bovine aorta. They were purified by anion exchange chromatography on MonoQ® Pharmacia following essentially the method of M. Hoey and Miles D. Houslay, Biochemical Pharmacology, Vol. 40, 193-202 (1990) and C. Lugman et al. Biochemical Pharmacology Vol. 35 1743-1751 (1986).
(§2) The enzyme activity is determined in a test batch of 100 μl in 20 mM Tris/HCl buffer pH 7.5 which comprises 5 mM MgCl2, 0.1 mg/ml bovine serum albumin and either 800 Bq ^3 HcAMP or ^3 HcGMP. The end concentration of the corresponding nucleotide is 10^-6 mol/l. The reaction is started by adding the enzyme, and the quantity of enzyme is such that approx. 50% of the substrate are converted during the incubation time of 30 minutes. To test the cGMP-stimulatable PDE II, ^3 HcAMP is used as substrate, 10^-6 mol/l unlabelled cGMP are added to the batch. To test the Ca-calmodulin-dependent PDE I, 1 μM CaCl2 and 0.1 μM calmodulin are also added to the reaction batch. The reaction is stopped by adding 100 μl of acetonitrile which contains 1 mM cAMP and 1 mM AMP. 100 μl of the reaction batch are separated by HPLC and the cleavage products are quantified on-line using a flow scintillation counter. The substance concentration at which the reaction rate is reduced by 50% is measured. Also used for testing were the "Phosphodiesterase [^3 H] cAMP-SPA enzyme assay" and the "Phosphodiesterase [^3 H]cGMP-SPA enzyme assay" by Amersham Life Science. The test was performed following the manufacturer's protocol. To determine the PDE2 activity, the [^3 H] cAMP SPA assay was used, 10^-6 M cGMP being added to the reaction batch for activating the enzyme. To measure PDE1, 10^-7 M calmodulin and 1 μM CaCl2 were added to the reaction batch. PDE5 was measured using the [^3 H] cGMP SPA assay.

PDE II = test: Phosphodiesterase inhibition in vitro, PDE II (cGMP-stimulatable); assay type: biochemical, porcine or bovine; conditions: 3H-cAMP substrate, 10^-6 mol/l cGMP added
From the text: as §1, §2

PDE V = test: Phosphodiesterase inhibition in vitro, PDE V (cGMP-specific); assay type: biochemical; conditions: 3H-cGMP substrate
From the text: as §1, §2

Compound | IC50 (PDE I) [nM] | IC50 (PDE II) [nM] | IC50 (PDE V) [nM]
COc1ccc(Cc2nc3c(cnn3C(C)CCCc3ccccc3)c(=O)[nH]2)cc1OC (stereo not drawn) [Example 9] | 300 | 300 | 300
CC(CCCc1ccccc1)n1ncc2c(=O)[nH]c(Cc3ccc(Cl)c(Cl)c3)nc21 (stereo not drawn) [Example 10] | 300 | 500 | 50

Further lines, results first:

IC50 (PDE I) [nM] | IC50 (PDE II) [nM] | IC50 (PDE V) [nM] | Compound
500 | 500 | 800 | Cc1nn(C(CCCc2ccccc2)C(C)O)c2nc(Cc3ccccc3)[nH]c(=O)c12 (single isomer, unassigned) [Example 33, 6-Benzyl-1-[1-(1-hydroxy-ethyl)-4-phenyl-butyl]-3-methyl-1,5-dihydro-pyrazolo[3,4-d]pyrimidin-4-one]
> 10000 | 100 | 50 | CCc1nn(C(C)CCCc2ccccc2)c2nc(Cc3ccc(Br)cc3)[nH]c(=O)c12 (stereo not drawn) [Example 11, 6-(4-Bromo-benzyl)-1-(1-methyl-4-phenyl-butyl)-3-ethyl-1,5-dihydro-pyrazole[3,4-d]pyrimidin-4-one]
500 | 300 | 300 | Cc1nn(C(CCCc2ccccc2)C(C)O)c2nc(Cc3ccccc3)[nH]c(=O)c12 (single isomer, unassigned) [Example 32, 6-Benzyl-1-[1-(1-hydroxy-ethyl)-4-phenyl-butyl]-3-methyl-1,5-dihydro-pyrazolo[3,4-d]pyrimidin-4-one]
